In experiment [1] the target is T1, PARK7 (Homo sapiens, UniProt Q99497).
T1 sequence (Q99497 1-189): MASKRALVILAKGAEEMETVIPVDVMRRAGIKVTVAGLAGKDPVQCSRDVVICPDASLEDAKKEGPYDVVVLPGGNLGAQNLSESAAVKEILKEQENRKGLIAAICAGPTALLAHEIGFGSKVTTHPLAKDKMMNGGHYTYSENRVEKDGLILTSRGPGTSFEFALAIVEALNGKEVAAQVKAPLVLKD
The experiment is described as follows: High-throughput screen of the crude compound library, PARK7 fluorescence polarization (FP) assay with FP reagent JYQ-107. Conditions: 1.25 µM, crude compound library; read-out: HTS FP assay %Inhibition (1.25 µM). It is filed as biochemical.

In experiment [2] the target is T1, PARK7. The experiment is described as follows: Hit validation and pure-compound testing in the PARK7 FP assay with JYQ-107. Conditions: for inhibition at 0.25 µM: read-out: % Inhibition 0.25 µM; for inhibition at 0.5 µM: read-out: % Inhibition 0.5 µM. It is filed as biochemical.

Where two headings read alike, the source gives them in different places.

As a reminder, the inhibition is the share of the control response that was lost under treatment. For the molecule `Cc1c[nH]c(=O)n1-c1cccc(C(=O)N2CCc3nc(NC(=O)[C@@H]4CCN(C#N)C4)sc3C2)c1` [Compound 315], at PARK7 [1], the inhibition at 1.25 µM was determined as 90%. In addition, on PARK7 [2] (crude compounds), the inhibition at 0.25 µM amounted to 44%, the inhibition at 0.5 µM is 66.5% and the inhibition at 1 µM is 91.2%.
`N#CN1CC[C@@H](C(=O)Nc2nc3c(s2)CN(C(=O)c2cc(-c4ccc(Cl)s4)[nH]n2)CC3)C1` [Compound 64]: the inhibition at 1.25 µM at PARK7 [1] stood at 90%. Besides, at PARK7 [2] (crude compounds), the inhibition at 0.25 µM came to 33.1%, the inhibition at 0.5 µM worked out at 63.2% and the inhibition at 1 µM was 89.5%.
Consider `N#CN1CC[C@@H](C(=O)Nc2nc3c(s2)CN(C(=O)c2cccc(S(=O)(=O)NCc4cccs4)c2)CC3)C1` [Compound 11], for which the inhibition at 1.25 µM at PARK7 [1] worked out at 90%. Also, at PARK7 [2] (crude compounds), the inhibition at 0.25 µM amounted to 49.3%, the inhibition at 0.5 µM was 77.9% and 1 µM produced 93.6% inhibition.
Take `Cc1ccc(-c2cc(C(=O)N3CCc4nc(NC(=O)[C@@H]5CCN(C#N)C5)sc4C3)n[nH]2)s1` [Compound 165]: at PARK7 [1], the inhibition at 1.25 µM came out at 95.1%. Besides, on PARK7 [2] (crude compounds), the inhibition at 0.25 µM was 56.4%, the inhibition at 0.5 µM came to 82.2% and at 1 µM the inhibition was 95.6%.
In the case of `N#CN1CC[C@@H](C(=O)Nc2nc3c(s2)CN(C(=O)c2ccc(-c4ccccn4)s2)CC3)C1` [Compound 258], the inhibition at 1.25 µM at PARK7 [1] amounted to 89.2%. Also, at PARK7 [2] (crude compounds), the inhibition at 0.25 µM is 44.4%, the inhibition at 0.5 µM was found to be 72.9% and testing at 1 µM gave an inhibition of 91%.
The like results for `N#CN1CC[C@@H](C(=O)Nc2nc3c(s2)CN(C(=O)c2cc(S(=O)(=O)NCCCN4CCCC4=O)ccc2Cl)CC3)C1` [Compound 146] were, in that order, 89.7%, 45%, 70.4% and 90.7%.
Regarding `Cc1ccc(-c2cc(C(=O)N3CCc4nc(NC(=O)[C@@H]5CCN(C#N)C5)sc4C3)[nH]n2)o1` [Compound 121], at PARK7 [1], the inhibition at 1.25 µM was 90.5%. For the same molecule, at PARK7 [2] (crude compounds), the inhibition at 0.25 µM was 52%, the inhibition at 0.5 µM was found to be 77.6% and 1 µM produced 93.8% inhibition.
For `Cc1nc(-c2cnn(C)c2)sc1C(=O)N1CCc2nc(NC(=O)[C@@H]3CCN(C#N)C3)sc2C1` [Compound 112], in that order: 91.1%, 54.6%, 78% and 93.1%.
For the molecule `N#CN1CC[C@@H](C(=O)Nc2nc3c(s2)CN(C(=O)c2cc(-n4cccc4)ccn2)CC3)C1` [Compound 279], at PARK7 [1], the inhibition at 1.25 µM came to 94.2%. In addition, at PARK7 [2] (crude compounds), the inhibition at 0.25 µM amounted to 82.4%, the inhibition at 0.5 µM is 96.1% and 1 µM produced 96.8% inhibition.
In the case of `N#CN1CC[C@@H](C(=O)Nc2nc3c(s2)CN(C(=O)c2cccc(S(=O)(=O)NC4CC4)c2)CC3)C1` [Compound 59, (R)-1-Cyano-N-(5-(3-(N-cyclopropylsulfamoyl)benzoyl)-4,5,6,7-tetrahydrothiazolo[5,4-c]pyridin-2-yl)pyrrolidine-3-carboxamide], the inhibition at 1.25 µM on PARK7 [1] was 89.7%. Besides, at PARK7 [2] (crude compounds), the inhibition at 0.25 µM is 63.1%, the inhibition at 0.5 µM is 84.4% and the inhibition at 1 µM was 97.5%. Besides, on PARK7 [2] (pure compounds), the inhibition at 0.25 µM stood at 74.8% and the inhibition at 1 µM worked out at 93.6%.
As to `N#CN1CC[C@@H](C(=O)Nc2nc3c(s2)CN(C(=O)c2cccc(-c4ncn[nH]4)c2)CC3)C1` [Compound 131], the inhibition at 1.25 µM at PARK7 [1] was determined as 91%. Also, on PARK7 [2] (crude compounds), the inhibition at 0.25 µM came to 66.1%, the inhibition at 0.5 µM was 84.3% and testing at 1 µM gave an inhibition of 96.9%.
In the case of `N#CN1CC[C@@H](C(=O)Nc2nc3c(s2)CN(C(=O)C2CN(S(=O)(=O)C4CC4)C2)CC3)C1` [Compound 174], the inhibition at 1.25 µM at PARK7 [1] amounted to 91.8%. Further, at PARK7 [2] (crude compounds), the inhibition at 0.25 µM was found to be 35%, the inhibition at 0.5 µM worked out at 63.1% and testing at 1 µM gave an inhibition of 87.7%.

Values taken from PMC11129182, “Development of Inhibitors, Probes, and PROTAC Provides a Complete Toolbox to Study PARK7 in the Living Cell” (Journal of Medicinal Chemistry, 2024).
